# pIC50: −log10 of the molar value. Like-named read-outs stand apart in the source and are kept apart here.
# Legend:
# PHA-stimulated PBMC = assay: Toxicity in PHA-stimulated PBMC, XTT method; format: cell-based; details: 7 days
# Procedure: Toxicity of DSB was analyzed by incubating with PHA-stimulated PBMC for 7 days at a range of concentrations, then determining cell viability using the XTT method. The 50% cytotoxic concentration was >30 μM, corresponding to an in vitro therapeutic index of approximately 5000.
# [1] = test system: drug resistant HIV-1 isolates; assay: Drug resistant HIV-1 isolates in fresh PBMC, p24 endpoint; format: cell-based; details: read-out: IC50
# Procedure: A robust virus inhibition assay was used to evaluate the anti-viral activity of DSB against primary HIV-1 isolates propagated in PMBC. Briefly, serial dilutions of DSB were made in medium into 96-well tissue culture plates. 25-250 TCID50 of virus and 5×10^5 PHA-stimulated PBMCs were added to each well. On days 1, 3 and 5 post-infection, media was removed from each well and replaced with fresh media containing DSB at the appropriate concentration.
# (§1) The activity of DSB was tested against a panel of HIV-1 isolates resistant to approved drugs. These viruses were obtained from the NIH AIDS Research and Reference Reagent Program. Assays were performed using virus propagated in PBMCs with a p24 endpoint (above), or using cell line targets (MT-2 cells) and a cell killing endpoint. The MT-2 assay format was as follows. Serial dilutions of DSB, or each approved drug, were prepared in 96 well plates. To each sample well was added media containing MT-2 cells at 3×10^5 cells/mL and virus inoculum at a concentration necessary to result in 80% killing of the cell targets at 5 days post-infection (PI). On day 5 post-infection, virus-induced cell killing was determined by the XTT method and the inhibitory activity of the compound was determined.
# [2] = test system: NNRTI-resistant HIV-1 isolates; assay: NNRTI-resistant HIV-1 isolates in MT-2 cells, cell viability (XTT) endpoint; format: cell-based; details: X4, MT-2 cells, read-out: IC50
# Procedure: as §1
# [3] = test system: HIV-1 infected MAGI cells; format: cell-based; details: HIV-1 infected MAGI cells
# From the text: To distinguish the inhibitory activity of DSB against early and late replication targets, a multinuclear activation of a galactosidase indicator (MAGI) assay was used. In this assay, the targets are HeLa cells stably expressing CD4, CXCR4, CCR5 and a reporter construct consisting of the—galactosidase gene (modified to localize to the nucleus) driven by a truncated HIV-1 LTR. Infection of these cells results in expression of Tat that drives activation of the β-galactosidase reporter gene. Expression of β-galactosidase in infected cells is detected using the chromogenic substrate X-gal.
# SIVmac251 = assay: Gag processing (western blot) in chronically infected H9/SIVmac251 cells; format: cell-based, SIV
# Procedure: FIG. 2. […] Gag proteins were visualized using HIV-Ig (HIV-1) or monkey anti-SIVmac251 serum (HIV-2 and SIV; NIH AIDS Research and Reference Reagent Program).
# In order to better define DSB's mechanism of action, a detailed examination was undertaken of the virus produced from HIV-1-infected cell lines treated with DSB. Briefly, H9 cells chronically infected with the HIV-1IIIB isolate were treated with DSB at 1 μg/mL for a period of 48 hrs. Indinavir was used as a control. At the 48 hr time-point, spent media was removed and fresh media containing compound was added. At 24, 48 and 72 hrs post fresh compound addition, both cells and supernatant were recovered for analysis. The level of virus in the culture supernatant was determined and western blots were used to characterize viral protein production in both cell-associated and cell-free virus. […] This defect took the form of an additional band in the western blots corresponding to p25 (FIG. 2). This p25 band results from the incomplete processing of the capsid CA-SP1 precursor. […] As discussed above, mutations at the p25 to p24 cleavage site that prevent processing are associated with defects in viral maturation and infectivity (Wiegers K. et al., J. Virol. 72:2846-54 (1998)).
# [4] = test system: HIV-1 infectious molecular clone pNL4-3; assay: EM analysis of HeLa cells transfected with pNL4-3; format: cell-based; details: DSB-treated samples
# From the text: FIG. 3. EM analysis of DSB-treated HIV-1 infected cells. […] Virions generated in the presence of DSB are characterized by an absence of conical, mature cores. In these samples the cores are uniformly spherical and often acentric. Secondly, many virions display an electron dense layer inside the lipid bilayer but outside the core (indicated with arrows in the DSB-treated sample panels).
# HeLa cells were transfected with HIV-1 infectious molecular clone pNL4-3 and treated as described previously with DSB. Following treatment, DSB-treated infected cells were fixed in glutaraldehyde and analyzed by EM.
# [5] = test system: DSB-resistant HIV-1 viruses; assay: Western blot of CA-SP1 cleavage in drug-resistant viruses; format: cell-based; details: drug-resistant viruses in the presence of DSB
# Procedure: To determine if the resistant viruses were able to escape the CA-SP1 cleavage defect caused by DSB in wild-type virus, stocks of each virus grown in either the presence or absence of drug were analyzed by Western blot. Virus was pelleted through a 20% sucrose cushion from filtered culture supernatants that were collected 60 hr post-infection and 18 hr after the cells had been washed and fresh drug added. The viruses were lysed, and the amount of each virus was normalized by quantitating p24 levels in each sample.
structure (smiles),measurement,setting,value
"C=C(C)[C@@H]1CC[C@]2(C(=O)O)CC[C@]3(C)[C@H](CC[C@@H]4[C@@]5(C)CC[C@H](OC(=O)CC(C)(C)C(=O)O)C(C)(C)[C@@H]5CC[C@]43C)[C@@H]12 [DSB, 3-O-(3′,3′-dimethylsuccinyl)betulinic acid]",50% cytotoxic concentration,PHA-stimulated PBMC,> 30 µM
same,pIC50,"[1]; isolate 1, NRTI-resistant, K70R T215Y/F, R5/X4",8.36
same,pIC50,"[1]; isolate 2, NRTI-resistant, K70R T215Y/F, R5/X4",8.38
same,pIC50,"[1]; isolate 5, Protease-resistant, V82A, X4",8.25
same,pIC50,"[1]; isolate 6, Protease-resistant, I84V, X4",8.26
same,pIC50,"[1]; isolate 7, Protease-resistant, L10R/M46I/L63P/V82T/I84V, X4",7.89
same,pIC50,"[2]; isolate 3, NNRTI-resistant, Y181C",9.00
same,pIC50,"[2]; isolate 4, NNRTI-resistant, K103N Y181C",8.89
same,% Decrease (β-galactosidase expression),[3],12%
same,antiviral activity,SIVmac251; SIV,lack of antiviral activity
same,Gag processing,"SIVmac251; SIV chronically infected cell line, 1 μg/mL",normal Gag processing
same,virion morphology by EM,[4],no mature viral particles were observed
same,CA-SP1 product in virus (Western blot),[5],did not contain the CA-SP1 product

# Source: patent publication US7537765B2, “Inhibition of HIV-1 replication by disruption of the processing of the viral capsid-spacer peptide 1 protein” (priority 2003, dated 2009)
